Data taken from US20240010998A1, “FLAVONE 4'-O-METHYLTRANSFERASE GENE AND USE FOR SAME” (SUNTORY HOLDINGS LIMITED, priority 2020, published 2024).

How the values were obtained:
[1] = Simulation of flavone C-glycoside copigment effect with anthocyanin (malvin): absorption spectrum; assay type: physicochemical; conditions: for Absorption maximum of malvin solution upon addition of flavone C-glycoside (λmax): flavone C-glycoside added at 10-equivalent molar concentration to 0.5 mM malvin
Procedure: An anthocyanin (malvin) and flavone C-glycoside were prepared to simulate the copigment effect of the flavone C-glycoside on malvin. The malvin (malvidin 3,5-diglucoside) and flavone C-glycosides (isovitexin (apigenin 6-C-glucoside), isoorientin (luteolin 6-C-glucoside) and swertisin (genkwanin 6-C-glucoside) used in the experiments were purchased from Nacalai Tesque, Inc. Embigenin (7,4′-dimethoxyisovitexin) was prepared by artificial organic synthesis from isovitexin. Each flavone C-glycoside (isovitexin, isoorientin, swertisin or embigenin) was added to the malvin at 10-equivalent molar concentration in a buffering solution at pH 5.0, and the absorption spectrum was measured. The malvin concentration was 0.5 mM.

[2] = system: DN144 (IjFn-4′OMT); test: Enzyme activity measurement with crude protein solution extract from E. coli expressing DN144; assay type: biochemical, fringed iris (Iris japonica); conditions: flavone substrate; for Produced compound: SAM, 30 minutes at 30° C., HPLC detection at 330 nm
Procedure: With DN144 as a candidate protein having activity of transferring a methyl group to the 4′-position hydroxyl group of flavone C-glycoside, and using pET15b (Novagen), an E. coli expression vector pSPB7942 containing the full-length of DN144 was constructed according to the manufacturer's recommended protocol.
Vector pSPB7942 was introduced into E. coli BL21(DE3) (New England Biolabs Japan Inc) by the manufacturer's recommended protocol, to obtain E. coli transformants. The E. coli were cultured using an Overnight Express Autoinduction System 1 (Novagen), according to the manufacturer's recommended protocol. The E. coli transformants were cultured at 37° C. (approximately 4 hours) with 2 mL of prepared culture solution, to an OD600 value of 0.5. The E. coli solution was added as a preculturing solution to 50 mL of culture solution, and main culturing was carried out for two nights at 16° C. The E. coli solution cultured for two nights was centrifuged (3,000 rpm, 4° C., 15 minutes), and the collected cells were suspended in sonic buffer (composition: 40 mM KPB (pH7.5), 1 mM dithiothreitol. 50 μM amidinophenylmethanesulfonyl fluoride hydrochloride, 500 μM ethylenediaminetetraacetic acid. 2 mM MgCl2, 1 μM S-adenosylmethionine (SAM)). A 5 mL portion of sonic buffer was added for each 1 g of E. coli. The suspended E. coli cells were crushed by ultrasonic treatment and then centrifuged (15,000 rpm, 4° C., 10 minutes), and the supernatant was recovered. The supernatant was used as a crude protein solution extract from E. coli expressing DN144. A TOMY MX-307 (rotor: AR015-24) was used for centrifugal separation (Tomy Seiko Co., Ltd.).
The substrates used for activity measurement were apigenin, apigenin 7-glucoside, isovitexin 2″-rhamnoside, saponarin (isovitexin 4′-glucoside), swertisin, luteolin, luteolin 7-glucoside, isoorientin, swertiajapanin (isoorientin 7-methyl ether), delphinidin 3-glucoside, delphinidin 3,5-diglucoside and malvidin 3,5-diglucoside. A mixture of 8 μL of each 1 mM substrate (50% acetonitrile aqueous solution containing 0.1% TFA), 20 μL of 10 mM SAM, 10 μL of 1 M KPB (pH 7.5) and 20 μL of 10 mM MgCl2 adjusted to 58 μL was kept at 30° C. for 10 minutes, and then 42 μL of crude protein solution extract from DN144-expressing E. coli was added for enzyme reaction (30 minutes at 30° C.). Next, 100 μL of stop buffer (aqueous 90% acetonitrile solution containing TFA) was added to stop the enzyme reaction, and the enzyme reaction solution was analyzed by high-performance liquid chromatography (LC-2030C by Shimadzu Corp.). Detection was at 330 nm using a Shimadzu PDA SPD-M20A as the detector. The column used as a Shim-Pack FC-ODS 150 mm*4.6 min (Shimadzu GLC). Elution was performed using solution A (0.1% TFA aqueous solution) and solution B (aqueous 90% acetonitrile solution containing 0.1% TFA). The elution was with a 20-minute linear concentration Gradient from a 9:1 mixture to a 8:2 mixture, a 15-minute linear concentration gradient from a 8:2. mixture to a 2:8 mixture and a 5-minute linear concentration gradient from a 2:8 mixture to a 0:10 mixture, followed by elution with a 0:10 mixture for 1 minute. The flow rate was 0.6 mL/min. As a control, the same experiment was carried out using a crude protein solution extract from E. coli in which pET15b vector without the insert had been introduced. As a result, compounds were detected in the enzyme reaction solutions obtained by reacting the 10 different flavones with the crude protein solution extract from the DN144-expressing E. coli. […] With reaction of the 3 different anthocyanins, no peaks were detected other than for the substrates in the enzyme reaction solution. When enzyme reaction was conducted using an anthocyanin substrate, the enzyme reaction conditions were 30° C., 15 minutes, and an aqueous 90% acetonitrile solution containing 0.1% TFA and 0.24 N hydrochloric acid was used as the stop buffer. […]

Absorption maximum of malvin solution upon addition of flavone C-glycoside (λmax) ([1]; buffering solution pH 5.0)	Molecule	Methyltransferase activity of DN144 for the substrate [2]	further results
575 nm	O=c1cc(-c2ccc(O)c(O)c2)oc2cc(O)c([C@@H]3O[C@H](CO)[C@@H](O)[C@H](O)[C@H]3O)c(O)c12 [Isoorientin, luteolin 6-C-glucoside]	strong methyltransferase activity	
578 nm	O=c1cc(-c2ccc(O)cc2)oc2cc(O)c([C@@H]3O[C@H](CO)[C@@H](O)[C@H](O)[C@H]3O)c(O)c12 [Isovitexin, apigenin 6-C-glucoside]		Produced compound [2]: Isocytisoside; Produced compound ([2]; listed as isovitexin): conversion to isocytisoside was confirmed
581 nm	COc1ccc(-c2cc(=O)c3c(O)c([C@@H]4O[C@H](CO)[C@@H](O)[C@H](O)[C@H]4O)c(OC)cc3o2)cc1 [Embigenin, 7,4′-dimethoxyisovitexin]		Copigment effect with respect to malvin (absorbance increase, shift of absorption maximum toward long wavelength end) ([1]; 10-equivalent flavone C-glycoside, 0.5 mM malvin, pH 5.0): highest copigment effect
	COc1cc(-c2[o+]c3cc(O)cc(O[C@@H]4O[C@H](CO)[C@@H](O)[C@H](O)[C@H]4O)c3cc2O[C@@H]2O[C@H](CO)[C@@H](O)[C@H](O)[C@H]2O)cc(OC)c1O [Malvin, malvidin 3,5-diglucoside]		Absorption maximum of malvin solution (λmax) ([1]; malvin alone, 0.5 mM, buffering solution pH 5.0): 529 nm
	isovitexin 2″-rhamnoside	strong methyltransferase activity	
	COc1cc2oc(-c3ccc(O)c(O)c3)cc(=O)c2c(O)c1[C@@H]1O[C@H](CO)[C@@H](O)[C@H](O)[C@H]1O [Swertiajaponin, luteolin 7-methyl-6-C-glucoside]	strong methyltransferase activity	

Molecule	Absorption maximum of malvin solution upon addition of flavone C-glycoside (λmax) ([1]; buffering solution pH 5.0)	Methyltransferase activity of DN144 for the substrate [2]	further results
COc1cc2oc(-c3ccc(O)cc3)cc(=O)c2c(O)c1[C@@H]1O[C@H](CO)[C@@H](O)[C@H](O)[C@H]1O [Swertisin, genkwanin 6-C-glucoside]	579 nm		Produced compound [2]: Embigenin; Produced compound ([2]; listed as swertisin): conversion to embigenin was confirmed
